Source: US20150086618A1, “PHOSPHOLIPID MICELLAR AND LIPOSOMAL COMPOSITIONS AND USES THEREOF” (THE BOARD OF TRUSTEES OF THE UNIVERSITY OF ILLINOIS, priority 2008, published 2015)
Where no end group is shown, it is not given here.

How the values were obtained:
[1] = test system: TREM-1 promoter-driven luciferase gene; test: TREM1-luciferase reporter assay in RAW 264.7 macrophages stimulated with P. aeruginosa PA103; format: cell-based, mouse; details: RAW 264.7 cells pre-treated 18 hr, then PA103 24 hr; compared to saline-treated PA103-stimulated cells
From the text: Murine macrophages (RAW 264.7 cells) were transfected with a pro-inflammatory mediator ‘triggering receptor expressed on myeloid cells’ (TREM-1) promoter-driven luciferase gene. TREM-1 is an immunoglobulin superfamily (IgSF) molecule that amplifies inflammation and is a crucial mediator of septic shock (Bouchon et al., Nature 410: 1103-1107, 2001). The macrophages were pre-treated for 18 hr with the following treatments: (i) saline, (ii) SSM, (iii) sub-micellar concentration of lipid (lipid), (iv) GLP-SSM (GM), or (v) VIP-SSM (VM), in the presence or absence of Exendin(9-39) or (VIP(6-28). To allow for the presence of excess antagonist to compete with its respective peptide agonist for receptor binding, the concentration of each receptor antagonist used (10 μM) was 10 times greater than its peptide agonist (1 μM). Inflammation of cells was induced by the addition of the Gram-negative bacteria Pseudomonas aeruginosa (P. aeruginosa strain PA103) for an additional 24 hr, and luciferase activities were measured (see FIG. 1).
The preparation of samples was carried out as follows: The SSM stock solution (1.59 mM) was prepared by weighing approximately 2.23 mg of DSPE-PEG2000 into a round bottom flask (RBF). Saline (˜0.5 ml) was added to achieve a concentration of 1.59 mM. […]
TREM1 expression levels were determined as set out below. […]

[2] = α-helicity of LP17 and control peptide in saline and SSM; format: physicochemical; details: peptide 20 μM, SSM 5 mM
Method: The α-helicity of LP17 (20 μM) in saline and in SSM (5 mM) was tested. A control peptide ([…] (SEQ ID NO:2)) was also tested in saline and in SSM at the same concentrations.

NF-κB = test: NF-κB-driven luciferase reporter assay in bone marrow-derived macrophages (BMDM) with LPS; format: cell-based, mice; details: 24 h
From the text: Bone marrow-derived macrophages (BMDM) from a primary macrophage cell line, extracted from mice transfected with a nuclear factor-kappa B (NF-κB)-driven luciferase reporter plasmid, were used in these experiments. In this cell line, the expression of NF-κB (a proinflammatory mediator) induces the expression of a luciferase gene in a concentration-dependent manner. Therefore, the expression level of NF-κB in BMDM can be quantified indirectly by the magnitude of luminescence produced [relative luminescence units (RLU)] via a luciferase assay. BMDM were subjected to treatment with either saline, saline+LPS, SSM, SSM+LPS, GLP, GLP+LPS, GLP-SSM (GM), GM+LPS, VIP, VIP+LPS, VIP-SSM (VM), and VM+LPS. The resulting inflammatory responses induced by the different agents was then quantified via a luciferase assay to determine the expression level of NF-κB.
Test reagents for use in the experiments were prepared using the following protocols as set out in detail below. SSM stock solution (1.56 mM): Weigh approximately 2.2 mg of DSPE-PEG2000 into a round bottom flask (RBF). Add the required volume of saline (˜0.5 ml) to achieve a concentration of 1.56 mM. Vortex the mixture for 2 minutes at maximum speed. Flush the solution with argon and equilibrate in the dark at 25° C. for at least 1 hour. […] Dissolve in the required volume of saline (˜30 μl) to form stock solution (173.3 μM). Test samples and controls were prepared as set out in Table 2, and samples and control were incubated at 25° C. for 2 h in the dark. VIP stock solution (176.67 μM≡587.57 μg/ml): Weigh approximately 12 μg of VIP peptide. Saline (˜20 μl) was added to form the stock solution (176.67 μM). LPS stock solution (LPS is weighed from lyophilized powder and dissolved in PBS; each well contains 1 μg/ml).
Preparation of cells for test: Extracted bone marrow cells were grown for 7 days in liquid culture medium (LCM) containing full medium. Old medium was removed and fresh medium (10-20 ml) was added. Cells were dislodged by scraping using a cell scraper, and the cells were counted. The concentration of cells was adjusted with medium to the test concentration of 10^5 cells/ml. Cells (10^5) (˜1 ml) were plated into each well of a 12-well plate. This procedure was repeated until 16 wells were plated with cells. Cells were incubated for 24 h at 37° C., 5% CO2. This allowed cells to adhere to the culture plate. After 24 h, medium was removed and replaced with serum-starved medium (with 2% FBS, phenol red containing DMEM and Pen/Strep (P/S)). Cells were incubated at 37° C., 5% CO2.
Determination of NF-κB expression level: Before addition of sample/control, the media was removed from each well; washed with PBS and 0.5 ml of serum free media (DMEM with no phenol red, FCS or antibiotics) was added into each well. Cells were treated as set out in Table 3 below. Cells were then incubated for 24 h at 37° C. The culture media was collected from each well. Remaining cells were washed twice with PBS; 100 μl of cell lysis buffer (luciferase kit) was added; cells were dislodged with a cell scraper and collected in centrifuge tubes. All samples were stored at −80° C. if not used immediately. The expression level of NF-kappa B (relative luminescence units (RLU)) in the cell lysate from each well was measured using a luciferase assay (Cat#1500, Promega). The protein content of each sample was measured using a Bradford protein assay to normalize results from the luciferase assay. The results are set out in Table 3 below and in FIG. 2.

## Exendin (9-39)
[1]
  luciferase activity (expression level of TREM 1): absence of anti-inflammatory effect

## TDSRCVIGLYHPPLQVY (SEQ ID NO:2) (listed as Mus musculus) [control peptide, control peptide for LP17]
[2]
  percent α-helicity in SSM compared to saline: No significant difference

## VIP(6-28): VIP receptor antagonist (FTDNYTRLRKQMAVKKYLNSILN; ends and bridges not checked; UniProt P01282 130-152, looked up, fragment)
[1]
  luciferase activity (expression level of TREM 1): absence of anti-inflammatory effect

## vasoactive intestinal peptide (HSDAVFTDNYTRLRKQMAVKKYLNSILN; ends and bridges not checked; UniProt P01282 125-152, looked up) [VIP, peptide hormone containing 28 amino acid residues, free peptide in saline]
NF-κB; + LPS (1 μg/ml)
  Relative Luminescence Units (RLU) Normalized to Protein Concentration, Ave.: 311.39 RLU
  Relative Luminescence Units (RLU) Normalized to Protein Concentration, Trial 1: 329.26 RLU
  Relative Luminescence Units (RLU) Normalized to Protein Concentration, Trial 2: 342.42 RLU
  Relative Luminescence Units (RLU) Normalized to Protein Concentration, Trial 3: 306.81 RLU
  Relative Luminescence Units (RLU) Normalized to Protein Concentration, Trial 4: 267.10 RLU
NF-κB; control without LPS
  Relative Luminescence Units (RLU) Normalized to Protein Concentration, Ave.: 73.70 RLU
  Relative Luminescence Units (RLU) Normalized to Protein Concentration, Trial 1: 57.78 RLU
  Relative Luminescence Units (RLU) Normalized to Protein Concentration, Trial 2: 90.09 RLU
  Relative Luminescence Units (RLU) Normalized to Protein Concentration, Trial 3: 60.50 RLU
  Relative Luminescence Units (RLU) Normalized to Protein Concentration, Trial 4: 86.45 RLU
